According to patent publication US20250268903A1, “RXFP1 AGONISTS” (BRISTOL-MYERS SQUIBB COMPANY, priority 2021, published 2025):

These molecules were tested against T1, human RXFP1 (Homo sapiens, UniProt Q9HBX9) (assay: hRXFP1 HEK293 cAMP assay (HTRF)). Conditions: HEK293 cells stably expressing human RXFP1, 30 min at room temperature.
T1 construct: expressed in transfected cells
T1 sequence (Q9HBX9 1-757): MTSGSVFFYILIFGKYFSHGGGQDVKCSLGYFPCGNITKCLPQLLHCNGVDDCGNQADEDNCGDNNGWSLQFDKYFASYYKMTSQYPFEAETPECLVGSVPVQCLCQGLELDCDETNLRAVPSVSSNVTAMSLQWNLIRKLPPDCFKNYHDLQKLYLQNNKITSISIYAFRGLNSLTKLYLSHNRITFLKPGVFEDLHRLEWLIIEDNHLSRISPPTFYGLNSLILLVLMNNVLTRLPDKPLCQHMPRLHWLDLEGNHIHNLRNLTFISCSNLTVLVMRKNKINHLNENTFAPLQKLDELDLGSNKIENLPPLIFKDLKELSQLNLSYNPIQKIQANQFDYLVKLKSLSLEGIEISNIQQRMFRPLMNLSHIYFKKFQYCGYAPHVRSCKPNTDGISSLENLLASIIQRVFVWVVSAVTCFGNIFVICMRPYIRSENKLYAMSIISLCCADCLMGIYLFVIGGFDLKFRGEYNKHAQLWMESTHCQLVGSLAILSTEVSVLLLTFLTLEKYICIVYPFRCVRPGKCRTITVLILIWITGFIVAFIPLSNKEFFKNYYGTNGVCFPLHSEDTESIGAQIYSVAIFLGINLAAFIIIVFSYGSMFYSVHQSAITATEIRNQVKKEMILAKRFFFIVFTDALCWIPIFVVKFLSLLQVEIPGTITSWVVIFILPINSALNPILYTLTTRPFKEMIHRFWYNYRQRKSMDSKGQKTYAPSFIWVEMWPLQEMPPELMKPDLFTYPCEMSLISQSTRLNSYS
Type: cell-based
Method: RXFP1 Cyclic Adenosine Monophosphate (cAMP) Assays. […] Cells were dissociated and suspended in assay buffer. The assay buffer was HBSS buffer (with calcium and magnesium) containing 20 mM HEPES, 0.05% BSA, and 0.5 mM IBMX. Cells (3000 cells per well, except 1500 cell per well for HEK293 cells stably expressing human RXFP1) were added to 384-well Proxiplates (Perkin-Elmer). Cells were immediately treated with test compounds in DMSO (2% final) at final concentrations in the range of 0.010 nM to 50 μM. Cells were incubated for 30 min at room temperature. The level of intracellular cAMP was determined using the HTRF HiRange cAMP assay reagent kit (Cisbio) according to manufacturer's instructions. Solutions of cryptate conjugated anti-cAMP and d2 fluorophore-labelled cAMP were made in a supplied lysis buffer separately. Upon completion of the reaction, the cells were lysed with equal volume of the d2-cAMP solution and anti-cAMP solution. […] The potency and activity of a compound to […] cAMP production was then determined by fitting to a 4-parametric logistic equation from a plot of cAMP level versus compound concentrations.

| Compound | EC50 |
| --- | --- |
| COc1ccc(S(=O)(=O)N2CCN(CCCO)CC2)cc1C(=O)N[C@H]1[C@@H](C(=O)Nc2ccc(F)c(C(F)(F)F)c2)[C@H]2CC[C@@H]1/C2=C\C(F)(F)F [Example 211, (1R,2S,3R,4R,7Z)-N-[4-fluoro-3 (trifluoromethyl)phenyl]-3-(5-{[4-(3-hydroxypropyl)piperazin-1-yl]sulfonyl}-2-methoxybenzamido)-7-(2,2,2-trifluoroethylidene) bicyclo[2.2.1] heptane-2-carboxamide] | 551 nM |
| COc1ccc(C(=O)N2CCCC(CO)C2)cc1C(=O)N[C@H]1[C@@H](C(=O)Nc2ccc(F)c(C(F)(F)F)c2)[C@H]2CC[C@@H]1/C2=C\C1CC1 (stereo partly drawn) [Example 235, (1R,2S,3R,4R,7Z)-7-(cyclopropylmethyl-idene)-N-[4-fluoro-3-(trifluoromethyl)phenyl]-3-{5-[3-(hydroxymethyl)piperidine-1-carbonyl]-2-methoxybenzamido} bicyclo[2.2.1] heptane-2-carboxamide] | 130 nM |
| COc1ccc(C23CCC(C(C)(C)O)(CC2)CC3)cc1C(=O)N[C@H]1[C@@H](C(=O)Nc2ccc(F)c(C(F)(F)F)c2)[C@H]2CC[C@@H]1/C2=C\C1CC1 (single isomer, unassigned) [Example 274] | 99.8 nM |
| COCc1ncn(Cc2ccc(OC)c(C(=O)N[C@H]3[C@@H](C(=O)Nc4ccc(F)c(C(F)(F)F)c4)[C@H]4CC[C@@H]3/C4=C\C3CC3)c2)n1 [Example 296, (1R,2S,3R,4R,7Z)-7-(cyclopropyl-methylidene)-N-[4-fluoro-3-(trifluoromethyl)phenyl]-3-(2-methoxy-5-{[3-(methoxymethyl)-1H-1,2,4-triazol-1-yl]methyl}benzamido) bicyclo[2.2.1] heptane-2-carboxamide] | 107 nM |
| COc1ccc(C(=O)NC(C)(C)CO)cc1C(=O)N[C@H]1[C@@H](C(=O)Nc2ccc(F)c(C(F)(F)F)c2)[C@H]2CC[C@@H]1/C2=C\C1CC1 [Example 239, N3-[(1R,2R,3S,4R,7Z)-7-(cyclopropyl-methylidene)-3-{[4-fluoro-3-(trifluoromethyl)phenyl]carbamoyl}bicyclo[2.2.1]heptan-2-yl]-N1-(1-hydroxy-2-methylpropan-2-yl)-4-methoxybenzene-1,3-dicarboxamide] | 27.8 nM |
| COc1ccc(C2CCCC(OC(=O)Nc3ccccc3)C2)cc1C(=O)N[C@@H]1C2CCC(/C2=C/C(F)(F)F)[C@@H]1C(=O)Nc1ccc(F)c(C(F)(F)F)c1 (single isomer, unassigned) [Example 41] | 201 nM |
| COc1ccc(C(=O)N2CCN(CC(F)F)CC2)cc1C(=O)N[C@H]1[C@@H](C(=O)Nc2ccc(F)c(C(F)(F)F)c2)[C@H]2CC[C@@H]1/C2=C\C1CC1 [Example 255, (1R,2S,3R,4R,7Z)-7-(cyclopropyl-methylidene)-3-{5-[4-(2,2-difluoroethyl)piperazine-1-carbonyl]-2-methoxybenzamido}-N-[4-fluoro-3-heptane-2-(trifluoromethyl)phenyl]bicyclo [2.2.1] carboxamide] | 73.4 nM |
| COc1ccc(C(=O)N2CCCC(CO)C2)cc1C(=O)N[C@H]1[C@@H](C(=O)Nc2ccc(F)c(C(F)(F)F)c2)[C@H]2CC[C@@H]1/C2=C\C1CC1 (stereo partly drawn) [Example 234, (1R,2S,3R,4R,7Z)-7-(cyclopropyl-methylidene)-N-[4-fluoro-3-(trifluoromethyl)phenyl]-3-{5-[3-(hydroxymethyl)piperidine-1-carbonyl]-2-methoxybenzamido} bicyclo[2.2.1]heptane-2-carboxamide] | 64.8 nM |
| COc1ccc(COC2C[C@@H](O)[C@@H](O)C2)cc1C(=O)N[C@H]1[C@@H](C(=O)Nc2ccc(F)c(C(F)(F)F)c2)[C@H]2CC[C@@H]1/C2=C\C1CC1 (stereo partly drawn) [Example 297, (1R,2S,3R,4R,7Z)-7-(cyclopropylmethylidene)-3-[5-({[(3R,4S)-3,4-dihydroxycyclopentyl]oxy}methyl)-2-methoxybenzamido]-N-[4-fluoro-3-(trifluoromethyl)phenyl]bicyclo[2.2.1]heptane-2-carboxamide] | 8.3 nM |

Now from value to molecule:

| EC50 | Compound |
| --- | --- |
| 264 nM | COc1ccc(/C=C/C(=O)N[C@H]2C[C@H](O)C2)cc1C(=O)NC1C2CCC(/C2=C/C(F)(F)F)[C@@H]1C(=O)Nc1ccc(F)c(C(F)(F)F)c1 (stereo partly drawn) [Example 131, (2S,3R,7Z)-N-[4-fluoro-3-(trifluoromethyl)phe-nyl]-3-{2-methoxy-5-[(1E)-2-{[(1r,3r)-3-hydroxycyclobutyl]car-bamoyl}eth-1-en-1-yl]benzamido}-7-(2,2,2-trifluoroethylidene)bi-cyclo[2.2.1]heptane-2-carboxamide] |
| 114 nM | COc1ccc(/C=C/C(=O)N2CC[C@H](O)C2)cc1C(=O)N[C@@H]1C2CCC(/C2=C/C(F)(F)F)[C@@H]1C(=O)Nc1ccc(F)c(C(F)(F)F)c1 (stereo partly drawn) [Example 130, (2S,3R,7Z)-N-[4-fluoro-3-(trifluoromethyl)phe-nyl]-3-{5-[(1E)-3-[(3S)-3-hydroxypyrrolidin-1-yl]-3-oxoprop-1-en-1-yl]-2-methoxybenzamido}-7-(2,2,2-trifluoroethylidene)bi-cyclo[2.2.1]heptane-2-carboxamide] |
| 694 nM | COc1ccc(CCC(=O)NC2CCC2)cc1C(=O)NC1C2CCC(/C2=C/C(F)(F)F)[C@@H]1C(=O)Nc1ccc(F)c(C(F)(F)F)c1 (stereo partly drawn) [Example 139, (2S,3R,7Z)-3-{5-[2-(cyclobutylcarbamoyl)ethyl]-2-methoxybenzamido}-N-[4-fluoro-3-(trifluoromethyl)phe-nyl]-7-(2,2,2-trifluoroethylidene)bi-cyclo[2.2.1]heptane-2-carboxamide] |
| 1780 nM | COc1ccc(CCCNC[C@H](O)C(F)(F)F)cc1C(=O)N[C@@H]1C2CCC(/C2=C/C(F)(F)F)[C@@H]1C(=O)Nc1ccc(F)c(C(F)(F)F)c1 (stereo partly drawn) [Example 118, (2S,3R,7Z)-N-[4-fluoro-3-(trifluoromethyl)phe-nyl]-3-[2-methoxy-5-(3-{[(2S)-3,3,3-trifluoro-2-hydroxypropyl]amino}propyl)benzamido]-7-(2,2,2-trifluoroethylidene)bi-cyclo[2.2.1]heptane-2-carboxamide] |
| 67 nM | COc1ccc(CCCO)cc1C(=O)N[C@@H]1C2CCC(/C2=C/C(F)(F)F)[C@@H]1C(=O)Nc1ccc(F)c(C(F)(F)F)c1 (stereo partly drawn) [Example 84, (2S,3R,7Z)-N-[4-fluoro-3-(trifluoromethyl)phe-nyl]-3-[5-(3-hydroxypropyl)-2-methoxybenzamido]-7-(2,2,2-trifluoroethylidene)bi-cyclo[2.2.1]heptane-2-carboxamide] |
| 2230 nM | CCOC(=O)/C(C)=C/c1ccc(OC)c(C(=O)N[C@H]2[C@@H](C(=O)Nc3ccc(F)c(C(F)(F)F)c3)[C@H]3CC[C@@H]2/C3=C\C(F)(F)F)c1 [Example 318, ethyl (2E)-3-(3-{[(1R,2R,3S,4R,7Z)-3-{[4-fluoro-3-(trifluoromethyl)phenyl]carbamoyl}-7-(2,2,2-trifluoroethylidene)bicyclo[2.2.1]heptan-2-yl]carbamoyl}-4-methoxyphenyl)-2-methylprop-2-enoate] |
| 111 nM | COc1ccc(CCCCO)cc1C(=O)N[C@@H]1C2CCC(/C2=C/C(F)(F)F)[C@@H]1C(=O)Nc1ccc(F)c(C(F)(F)F)c1 (stereo partly drawn) [Example 98, (2S,3R,7Z)-N-[4-fluoro-3-(trifluoromethyl)phe-nyl]-3-[5-(4-hydroxybutyl)-2-methoxybenzamido]-7-(2,2,2-trifluoroethylidene)bi-cyclo[2.2.1]heptane-2-carboxamide] |
